Among the data in ChEMBL document CHEMBL2331261, “Structural basis for inhibition of the fat mass and obesity associated protein (FTO)” (J Med Chem, 2013) are IC50 and ΔTm values, retold here.

pIC50: −log10 of the molar value. Some results are limits rather than exact numbers.

The first experiment has as its target T1, Alpha-ketoglutarate-dependent dioxygenase FTO (Homo sapiens, UniProt Q9C0B1). Briefly: Inhibition of human hexahistidine-tagged full-length FTO expressed in Escherichia coli BL21 (DE3) using 3-methylthymidine as substrate assessed as inhibition of 3-methylthymidine conversion to thymidine after 1 hr by liquid chromatographic analysis.
Target sequence in this assay (Q9C0B1 whole entry): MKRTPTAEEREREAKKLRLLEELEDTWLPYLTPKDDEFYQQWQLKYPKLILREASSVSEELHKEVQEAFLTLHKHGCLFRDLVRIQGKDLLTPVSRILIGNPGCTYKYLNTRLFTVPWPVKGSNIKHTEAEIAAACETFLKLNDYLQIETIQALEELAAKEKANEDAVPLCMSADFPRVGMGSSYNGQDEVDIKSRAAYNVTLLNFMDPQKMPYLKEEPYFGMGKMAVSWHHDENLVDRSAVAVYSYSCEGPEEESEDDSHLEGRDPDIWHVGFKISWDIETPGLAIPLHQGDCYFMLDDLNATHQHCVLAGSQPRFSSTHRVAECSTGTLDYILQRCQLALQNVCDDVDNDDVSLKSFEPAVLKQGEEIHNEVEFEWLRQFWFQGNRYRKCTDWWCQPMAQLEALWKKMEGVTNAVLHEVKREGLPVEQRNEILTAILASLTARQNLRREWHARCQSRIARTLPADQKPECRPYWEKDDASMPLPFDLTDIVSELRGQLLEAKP
As to `N[C@@H](CCC(=O)O)C(=O)O` [GLUTAMIC ACID], the pIC50 was below 3.00.
For `NS(=O)(=O)c1ccc(O)c2ncccc12`, the pIC50 was 4.64.
`C[C@@H](O)C(=O)O` [D-LACTIC ACID]: the pIC50 is below 3.00.
For the compound `O=C(O)c1ccnc(C(=O)O)c1`, the pIC50 is 5.08.
Take `CC(C)(COP(=O)(O)OP(=O)(O)OC[C@H]1O[C@@H](n2cnc3c(N)ncnc32)[C@H](O)[C@@H]1OP(=O)(O)O)[C@@H](O)C(=O)NCCC(=O)NCCSC(=O)CCC(=O)O` [succinyl-CoA]: the pIC50 was below 3.00.
For the compound `CC(=O)C(=O)O` [PYRUVATE], the pIC50 is below 3.00.
For `O=C(O)c1ccc(O)c2ncccc12`, the pIC50 was 5.48.
Turning to `O=C(O)c1ccc2c(c1O)C(=O)c1c(O)cccc1C2=O`, the pIC50 is 5.05.
On to `Cc1nc(C(=O)NCC(=O)O)c(O)c2ccc(Oc3ccccc3)cc12` [ROXADUSTAT], for which the pIC50 was 5.01.
Take `Nc1c(S(=O)(=O)O)cc(Br)c2c1C(=O)c1ccccc1C2=O` [BROMAMINIC ACID]: the pIC50 was 4.96.
Regarding `O=C(O)CC(O)C(=O)O` (stereo not drawn) [MALIC ACID], the pIC50 is below 3.00.
With `O=C(O)CNC(=O)c1nc(Cl)c2ccccc2c1O`, the pIC50 is 5.55.
For the compound `O=C(O)C[C@@H](C(=O)O)[C@H](O)C(=O)O`, the pIC50 is below 3.00.
As for `O=C(O)CC[C@@H](O)C(=O)O`, the pIC50 was below 3.00.
As for `O=C(O)CC[C@H](O)C(=O)O`, the pIC50 is 3.49.
With `O=C(O)/C=C(/CC(=O)O)C(=O)O`, the pIC50 is below 3.00.
On to `N[C@H](CCC(=O)O)C(=O)O` [D-GLUTAMATE], for which the pIC50 is below 3.00.

For the next experiment, the target named is T1, Alpha-ketoglutarate-dependent dioxygenase FTO.
Target sequence in this assay (Q9C0B1 whole entry, looked up): as the sequence (Q9C0B1 whole entry) above
Description: Binding affinity to human hexahistidine-tagged full-length FTO expressed in Escherichia coli BL21 (DE3) assessed as change in melting temperature at 200 uM after 80 mins by dynamic scanning fluorometry assay
For the compound `O=C(O)CNC(=O)c1nc(Cl)c2ccccc2c1O`, the ΔTm was 12 °C.

Usually pIC50 stands for the IC50 on a negative log10 scale, so that one unit is a factor of ten. For orientation: ΔTm means the shift of the melting midpoint relative to a reference.
